The subject of one assay is S. aureus 4220. Description: MIC, double dilution method, S. aureus 4220. Format: cell-based. The settings on record: Staphylococcus aureus, 4220, 24 h, S. aureus 4220, Gram-positive; 24 h culture; read-out: MIC.
The next assay concerns S. aureus ATCC 6538. Put plainly: MIC, double dilution method, S. aureus ATCC 6538. The format is cell-based. Conditions: Staphylococcus aureus, ATCC6538, 24 h, S. aureus ATCC 6538, Gram-positive; 24 h culture; read-out: MIC.
A further assay relates to MRSA ATCC 43300. Put plainly: MIC, double dilution method, MRSA ATCC 43300. The settings on record: Staphylococcus aureus, 24 h, MRSA ATCC 43300, Gram-positive; 24 h culture; read-out: MIC. Format: cell-based, Methicillin-resistant Staphylococcus aureus.
A further assay concerns P. aeruginosa CMCC 10211. Description: MIC, double dilution method, P. aeruginosa CMCC 10211. Format: cell-based. Conditions: Pseudomonas aeruginosa, CMCC10211; P. aeruginosa CMCC 10211, Gram-negative; 24 h culture; read-out: MIC.
A further assay relates to E. coli ATCC 25922. Put plainly: MIC, double dilution method, E. coli ATCC 25922. Format: cell-based. The settings on record: Escherichia coli, ATCC25922; E. coli ATCC 25922, Gram-negative; 24 h culture; read-out: MIC.
The test system of the next assay is E. coli 1924. Put plainly: MIC, double dilution method, E. coli 1924. The settings on record: Escherichia coli; E. coli 1924, Gram-negative; 24 h culture; read-out: MIC. The format is cell-based, Escherichia coli.
In another assay the test system is C. albicans CMCC 98001. Description: MIC, double dilution method, C. albicans CMCC 98001. Format: cell-based, Candida albicans. Conditions: for MIC: C. albicans CMCC 98001, fungus, 24 h culture; for antifungal activity (class in words): C. albicans CMCC 98001.
The mark [1] stands for this setting: Candida albicans, CMCC98001, 24 h, read-out: MIC.

The record followed here is article PMC11596972, “Synthesis and Antimicrobial Activity of 3-Alkylidene-2-Indolone Derivatives” (Molecules, 2024).

Broadly, the MIC is the smallest concentration in the dilution series that meets the test's criterion for growth inhibition.

Each structure is given as a SMILES string. ≈ marks a conversion by molar mass, not a printed value. Read-outs that look alike come from different tables or passages of the source. Some results are limits rather than exact numbers.

Regarding `C/C(O)=C1/C(=O)N(C)c2c(C)cccc21` [Compound 5b, (Z)-3-(1-hydroxyethylidene)-1,7-dimethylindolin-2-one], the MIC was above 64 µg/mL with S. aureus 4220; 64 µg/mL (≈ 315 µM) in the assay on S. aureus ATCC 6538; above 64 µg/mL with MRSA ATCC 43300; 64 µg/mL (≈ 315 µM) with P. aeruginosa CMCC 10211; 64 µg/mL (≈ 315 µM) in the assay with E. coli ATCC 25922; 32 µg/mL (≈ 157 µM) in the assay on E. coli 1924. In addition, the MIC in the assay with C. albicans CMCC 98001 (setting [1]) was found to be 32 µg/mL (≈ 157 µM).

As to `C/C(O)=C1/C(=O)N(C)c2cc(C)ccc21` [Compound 5c, (Z)-3-(1-hydroxyethylidene)-1,6-dimethylindolin-2-one], the MIC is above 64 µg/mL in the assay on S. aureus 4220; 64 µg/mL (≈ 315 µM) with S. aureus ATCC 6538; above 64 µg/mL in the assay with MRSA ATCC 43300; 64 µg/mL (≈ 315 µM) with P. aeruginosa CMCC 10211; 64 µg/mL (≈ 315 µM) with E. coli ATCC 25922; 16 µg/mL (≈ 78.7 µM) with E. coli 1924. In addition, in the assay with C. albicans CMCC 98001 (setting [1]), the MIC stood at 16 µg/mL (≈ 78.7 µM).

For `C/C(O)=C1/C(=O)N(C)c2ccc(C)cc21` [Compound 5d, (Z)-3-(1-hydroxyethylidene)-1,5-dimethylindolin-2-one], the MIC in the assay on S. aureus ATCC 6538 was 64 µg/mL (≈ 315 µM); in the assay with MRSA ATCC 43300, above 64 µg/mL; in the assay with P. aeruginosa CMCC 10211 it was 64 µg/mL (≈ 315 µM); in the assay on E. coli ATCC 25922, above 64 µg/mL; in the assay on E. coli 1924, 2 µg/mL (≈ 9.84 µM). For the same molecule, the “antifungal activity (class in words)” value in the assay on C. albicans CMCC 98001 is “moderate antifungal activity”.

Consider `C/C(O)=C1/C(=O)N(C)c2c(F)cccc21` [Compound 5e, (Z)-7-fluoro-3-(1-hydroxyethylidene)-1-methylindolin-2-one], for which the MIC was 64 µg/mL (≈ 309 µM) in the assay on S. aureus ATCC 6538; 64 µg/mL (≈ 309 µM) in the assay with MRSA ATCC 43300; above 64 µg/mL in the assay on P. aeruginosa CMCC 10211; above 64 µg/mL in the assay on E. coli ATCC 25922; 16 µg/mL (≈ 77.2 µM) in the assay on E. coli 1924; 32 µg/mL (≈ 154 µM) with C. albicans CMCC 98001 (setting [1]).

For `C/C(O)=C1/C(=O)N(C)c2cc(F)ccc21` [Compound 5f, (Z)-6-fluoro-3-(1-hydroxyethylidene)-1-methylindolin-2-one], the MIC was above 64 µg/mL in the assay on S. aureus 4220; above 64 µg/mL with S. aureus ATCC 6538; above 64 µg/mL in the assay with MRSA ATCC 43300; above 64 µg/mL in the assay on P. aeruginosa CMCC 10211; above 64 µg/mL in the assay on E. coli ATCC 25922; 32 µg/mL (≈ 154 µM) in the assay with E. coli 1924. Besides, the MIC with C. albicans CMCC 98001 (setting [1]) turned out to be 64 µg/mL (≈ 309 µM).

For the molecule `C/C(O)=C1/C(=O)N(C)c2ccc(F)cc21` [Compound 5g, (Z)-5-fluoro-3-(1-hydroxyethylidene)-1-methylindolin-2-one], the MIC with S. aureus 4220 was above 64 µg/mL; in the assay with S. aureus ATCC 6538 it was 64 µg/mL (≈ 309 µM); in the assay on MRSA ATCC 43300 it was above 64 µg/mL; in the assay with P. aeruginosa CMCC 10211 it was above 64 µg/mL; with E. coli ATCC 25922, above 64 µg/mL; in the assay on E. coli 1924, 64 µg/mL (≈ 309 µM). In addition, the MIC in the assay with C. albicans CMCC 98001 (setting [1]) was found to be 32 µg/mL (≈ 154 µM).

`C/C(O)=C1/C(=O)N(C)c2cccc(F)c21` [Compound 5h, (Z)-4-fluoro-3-(1-hydroxyethylidene)-1-methylindolin-2-one]: the MIC is 64 µg/mL (≈ 309 µM) with S. aureus 4220; above 64 µg/mL in the assay on S. aureus ATCC 6538; above 64 µg/mL with MRSA ATCC 43300; above 64 µg/mL in the assay on P. aeruginosa CMCC 10211; above 64 µg/mL with E. coli ATCC 25922; 32 µg/mL (≈ 154 µM) in the assay on E. coli 1924. Further, the MIC with C. albicans CMCC 98001 is 16 µg/mL (≈ 77.2 µM); with C. albicans CMCC 98001 (setting [1]), 8 to 16 µg/mL (≈ 38.6 to 77.2 µM). Also, the “antifungal activity (class in words)” value in the assay with C. albicans CMCC 98001 is given as “moderate antifungal activity”.

For the molecule `C/C(O)=C1/C(=O)N(C)c2c(Cl)cccc21` [Compound 5i, (Z)-7-chloro-3-(1-hydroxyethylidene)-1-methylindolin-2-one], the MIC is 32 µg/mL (≈ 143 µM) with S. aureus 4220; 32 µg/mL (≈ 143 µM) in the assay on S. aureus ATCC 6538; 64 µg/mL (≈ 286 µM) in the assay with MRSA ATCC 43300; 64 µg/mL (≈ 286 µM) with P. aeruginosa CMCC 10211; above 64 µg/mL in the assay on E. coli ATCC 25922; 8 µg/mL (≈ 35.8 µM) in the assay with E. coli 1924. Moreover, the MIC in the assay on C. albicans CMCC 98001 (setting [1]) was determined as 64 µg/mL (≈ 286 µM).

As for `C/C(O)=C1/C(=O)N(C)c2cc(Cl)ccc21` [Compound 5j, (Z)-6-chloro-3-(1-hydroxyethylidene)-1-methylindolin-2-one], the MIC is 32 µg/mL (≈ 143 µM) with S. aureus 4220; above 64 µg/mL in the assay on MRSA ATCC 43300; above 64 µg/mL in the assay with P. aeruginosa CMCC 10211; above 64 µg/mL with E. coli ATCC 25922; 8 µg/mL (≈ 35.8 µM) in the assay on E. coli 1924; 64 µg/mL (≈ 286 µM) in the assay with C. albicans CMCC 98001 (setting [1]).

On to `C/C(O)=C1/C(=O)N(C)c2ccc(Cl)cc21` [Compound 5k, (Z)-5-chloro-3-(1-hydroxyethylidene)-1-methylindolin-2-one], for which the MIC with S. aureus ATCC 6538 was 16 µg/mL (≈ 71.5 µM); with MRSA ATCC 43300 it was above 64 µg/mL; in the assay on P. aeruginosa CMCC 10211 it was above 64 µg/mL; with E. coli ATCC 25922, above 64 µg/mL; with E. coli 1924, 1 µg/mL (≈ 4.47 µM); with C. albicans CMCC 98001 (setting [1]) it was 32 µg/mL (≈ 143 µM).

As for `C/C(O)=C1/C(=O)N(C)c2c(Br)cccc21` [Compound 5l, (Z)-7-bromo-3-(1-hydroxyethylidene)-1-methylindolin-2-one], the MIC is 32 µg/mL (≈ 119 µM) in the assay with S. aureus 4220; 64 µg/mL (≈ 239 µM) in the assay with S. aureus ATCC 6538; 64 µg/mL (≈ 239 µM) in the assay on MRSA ATCC 43300; above 64 µg/mL in the assay with P. aeruginosa CMCC 10211; above 64 µg/mL with E. coli ATCC 25922; 8 µg/mL (≈ 29.8 µM) with E. coli 1924. The MIC in the assay on C. albicans CMCC 98001 (setting [1]) stood at 64 µg/mL (≈ 239 µM).

For `C/C(O)=C1/C(=O)N(C)c2cc(Br)ccc21` [Compound 5m, (Z)-6-bromo-3-(1-hydroxyethylidene)-1-methylindolin-2-one], the MIC in the assay on S. aureus 4220 was above 64 µg/mL; in the assay with S. aureus ATCC 6538, 32 µg/mL (≈ 119 µM); in the assay on MRSA ATCC 43300 it was 64 µg/mL (≈ 239 µM); in the assay on P. aeruginosa CMCC 10211 it was above 64 µg/mL; with E. coli ATCC 25922, above 64 µg/mL; with E. coli 1924 it was 16 µg/mL (≈ 59.7 µM). For the same molecule, the MIC in the assay with C. albicans CMCC 98001 (setting [1]) turned out to be 64 µg/mL (≈ 239 µM).

For the molecule `C/C(O)=C1/C(=O)N(C)c2ccc(Br)cc21` [Compound 5n, (Z)-5-bromo-3-(1-hydroxyethylidene)-1-methylindolin-2-one], the MIC with S. aureus 4220 was 32 µg/mL (≈ 119 µM); in the assay with S. aureus ATCC 6538, 32 µg/mL (≈ 119 µM); in the assay with MRSA ATCC 43300, above 64 µg/mL; in the assay on P. aeruginosa CMCC 10211, above 64 µg/mL; in the assay with E. coli ATCC 25922, above 64 µg/mL; in the assay with E. coli 1924, 8 µg/mL (≈ 29.8 µM). The MIC in the assay on C. albicans CMCC 98001 (setting [1]) was found to be 64 µg/mL (≈ 239 µM).

Turning to `C/C(O)=C1/C(=O)N(C)c2ccc(C(F)(F)F)cc21` [Compound 5q, (Z)-3-(1-hydroxyethylidene)-1-methyl-5-(trifluoromethyl)indolin-2-one], the MIC was 64 µg/mL (≈ 249 µM) in the assay on S. aureus 4220; above 64 µg/mL in the assay on MRSA ATCC 43300; above 64 µg/mL in the assay on P. aeruginosa CMCC 10211; above 64 µg/mL with E. coli ATCC 25922; 16 µg/mL (≈ 62.2 µM) in the assay with E. coli 1924; above 64 µg/mL in the assay with C. albicans CMCC 98001 (setting [1]).

In the case of `C/C(O)=C1/C(=O)N(C)c2cc(C(F)(F)F)ccc21` [Compound 5r, (Z)-3-(1-hydroxyethylidene)-1-methyl-6-(trifluoromethyl)indolin-2-one], the MIC in the assay with S. aureus 4220 was 64 µg/mL (≈ 249 µM); in the assay with P. aeruginosa CMCC 10211, above 64 µg/mL; in the assay with E. coli ATCC 25922, above 64 µg/mL; in the assay with E. coli 1924 it was above 64 µg/mL; in the assay on C. albicans CMCC 98001 it was 16 µg/mL (≈ 62.2 µM); in the assay with C. albicans CMCC 98001 (setting [1]), 8 to 16 µg/mL (≈ 31.1 to 62.2 µM). The “antifungal activity (class in words)” value with C. albicans CMCC 98001 is listed as “moderate antifungal activity”.

`C/C(O)=C1/C(=O)N(Cc2ccccc2)c2ccccc21` [Compound 5u, (Z)-1-benzyl-3-(1-hydroxyethylidene)indolin-2-one]: the minimal inhibitory concentration (MIC) is 64 µg/mL (≈ 241 µM) with MRSA ATCC 43300; above 64 µg/mL with P. aeruginosa CMCC 10211; 64 µg/mL (≈ 241 µM) in the assay with E. coli ATCC 25922; 2 µg/mL (≈ 7.54 µM) in the assay with E. coli 1924; 32 µg/mL (≈ 121 µM) with C. albicans CMCC 98001 (setting [1]).

As to `CCCN1C(=O)/C(=C(/C)O)c2ccccc21` [Compound 5v, (Z)-3-(1-hydroxyethylidene)-1-propylindolin-2-one], the MIC in the assay with S. aureus 4220 is 64 µg/mL (≈ 295 µM); in the assay on S. aureus ATCC 6538 it was 64 µg/mL (≈ 295 µM); with P. aeruginosa CMCC 10211 it was above 64 µg/mL; with E. coli ATCC 25922 it was above 64 µg/mL; in the assay on E. coli 1924 it was 16 µg/mL (≈ 73.6 µM); with C. albicans CMCC 98001 (setting [1]), 32 µg/mL (≈ 147 µM).
